How the values were obtained:
[1] = test system: animals with acute PH; experiment: Single dose in acute PH due to pulmonary embolism; type: in vivo, pigs; details: 5 μg/Kg endovenous, 10 minutes after administration
Source text: In 10 2 month old healthy pigs (weighing ≈30 kg) anesthetized, intubated and ventilated with 40% FiO2, while continuously monitoring blood pressure, heart rate (HR), oxygen saturation as well as PAP and repeated measurements of cardiac output (CO) by means of thermodilution using a Swan-Ganz catheter, acute PH was generated by means of pulmonary embolization with a suspension of microspheres (Sephadex G50 coarse; Pharmacia Biotech; Freiburg, Germany) by femoral vein route. The dose necessary for causing an increase of mean PAP≥40 mmHg to remain stable for 10 minutes was administered. At that time the animals were randomized to receive specific β3 agonist BRL37344 (5 μg/Kg) or physiological saline (vehicle).
(§1) Cardiac output was quantified by the thermodilution technique.
(§2) A value of P<0.05 was considered significant.

[2] = test system: post-capillary chronic PH model; experiment: Single dose in chronic post-capillary PH
Source text: The post-capillary PH model was generated by means of the non-restrictive surgical cerclage of the main pulmonary vein in 4 week old piglets (weighing about 10 kg). This vein drains the blood from both lower lung lobes, forming about 80% of the pulmonary mass. With analgesia and general anesthesia and under cardiac monitoring and orotraqueal intubation, the right external jugular vein and common carotid artery were located by means of surgical dissection. The Swan-Ganz catheter was introduced through the venous access to continuously monitor PAP, pulmonary capillary pressure and cardiac output. The arterial route also served to monitor systemic blood pressure during the surgical intervention. By means of right lateral thoracotomy through the fifth intercostal space, non-restrictive cerclage of the main pulmonary vein was performed by means of placing a 5 mm wide polyester band around the vessel fitting the at-rest diameter of the pulmonary venous confluence right before it enters the left atrium. […] It is therefore a progressive PH model (severity intensifies throughout follow-up). […] At the end of follow-up, the animals were euthanized and their hearts extracted for histological analysis.
(§3) The hemodynamic study was conducted by means of right heart catheterization strictly using the same methodology as in humans. Once PH was generated, the following parameters were quantified basally and after the administration of the β3 agonist, in duplicate: PAP, pulmonary capillary pressure and right atrial pressure. Cardiac output was quantified by the thermodilution technique. Five measurements were taken, and the mean of 3 measurements was considered after excluding the highest and lowest determinations. Left ventricular end-diastolic pressure was determined by means of placement of a pig-tail catheter inside the left ventricle through the femoral artery. Pulmonary vascular resistances were calculated as the difference between mean PAP and left ventricular end-diastolic pressure divided by the cardiac output and expressed in Wood units.
The effect of the drug was evaluated 10 minutes after administration in acute PH and 20 minutes after administration in chronic PH.
The continuous variables are expressed as mean±SD and qualitative variables are expressed as frequency (%). The comparison between the intervention groups with respect to changes in the variables, calculated as the difference between the post-treatment and pre-treatment value (both in acute PH and chronic PH), was performed by means of the Wilcoxon test. The evaluation of the effect of a single dose of β3 agonist on the hemodynamic parameters in chronic PH was performed by means of the Student's T test or Wilcoxon test for paired data, according to the distribution of the variables. A value of P<0.05 was considered significant.

[3] = test system: pre-capillary chronic PH model; experiment: Single dose in chronic pre-capillary PH; type: in vivo, Large-White pigs, Sus scrofa
Source text: The pre-capillary PH model was generated by means of pulmonary arterial embolization with synthetic microspheres 300 microns in diameter (Sephadex G50 coarse; Pharmacia Biotech; Freiburg, Germany), a variant of a model previously described (Bernd W. Bottiger, MD; Johann Motsch, MD; Joachim Dorsam, MD; UlfMieck, MD; Andre Gries, MD, forg Weimann, MD; and Eike Martin, MD. Inhaled Nitric Oxide Selectively Decreases Pulmonary Artery Pressure and Pulmonary Vascular Resistance Following Acute Massive Pulmonary Microembolism in Piglets. CHEST1996; 110:1041-47).
The protocol was initiated in 3 month old Large-White pigs, Sus scrofa species (weighing ≈40 kg). After general anesthesia and analgesia and under cardiac monitoring and orotracheal intubation, the femoral vein and artery were cannulated by means of percutaneous puncture in the cardiac hemodynamics laboratory. Through the venous access, a Swan-Ganz catheter was placed in one of the main branches of the pulmonary artery (PA), which was connected to a monitor to continuously record PAP and to quantify pulmonary capillary pressure and cardiac output. The arterial route allowed continuously recording systemic blood pressure. Venous access served to administer the microspheres towards the pulmonary arterial circulation. A solution was prepared with 500 mg of microspheres in 200 ml of physiological saline and the amount necessary to reach mean sustained PAP>40 mmHg in about 20 minutes was administered. This method was repeated weekly (3-5 embolizations) until generating chronic PH (mean PAP>25 mmHg at rest). Two-month follow-up was conducted on the animals. […] The histopathological lesions observed in the lung reproduce those shown in arterial PH or chronic thromboembolic PH in humans: arterial intima proliferation with media hypertrophy and perivascular fibrosis, vascular occlusions, and complex lesions such as vascular aneurisms or plexiform lesions.
as §1, §2

[4] = test system: animals with post-capillary chronic PH; experiment: Chronic endovenous treatment in post-capillary chronic PH (blind, randomized); details: 10 μg/Kg/day for 14 days
Source text: The post-capillary PH model was generated by means of the non-restrictive surgical cerclage of the main pulmonary vein in 4 week old piglets (weighing about 10 kg). This vein drains the blood from both lower lung lobes, forming about 80% of the pulmonary mass. With analgesia and general anesthesia and under cardiac monitoring and orotraqueal intubation, the right external jugular vein and common carotid artery were located by means of surgical dissection. The Swan-Ganz catheter was introduced through the venous access to continuously monitor PAP, pulmonary capillary pressure and cardiac output. The arterial route also served to monitor systemic blood pressure during the surgical intervention. By means of right lateral thoracotomy through the fifth intercostal space, non-restrictive cerclage of the main pulmonary vein was performed by means of placing a 5 mm wide polyester band around the vessel fitting the at-rest diameter of the pulmonary venous confluence right before it enters the left atrium. […]
as §3, with “Five measurements were taken, and the mean of 3 measurements was considered after excluding the highest and lowest determinations.” left out
The continuous variables are expressed as mean±SD and qualitative variables are expressed as frequency (%). The comparison between the intervention groups with respect to changes in the variables, calculated as the difference between the post-treatment and pre-treatment value (both in acute PH and chronic PH), was performed by means of the Wilcoxon test. […]

[5] = test system: animals with post-capillary chronic PH; experiment: Chronic oral treatment in post-capillary chronic PH (blind, randomized); type: in vivo, pigs; details: 50 mg/12 hours orally for 14 days; intermediate analysis (N=4); control group showed an increase of PVRs
Protocol: as §1
To evaluate the chronic effect of treatment with Mirabegron, a 50 mg tablet was administered orally every 12 hours in all cases. The fixed dose for all the animals was based on doses used in humans for different pathologies (never PH because it has never been tested in this entity), resulting in no adverse effects. The dose used for treating neurogenic bladder is 25 to 50 mg/day, whereas in studies designed to evaluate the effect of this drug in heart failure (see “Beta 3 Agonist Treatment in Heart Failure (Beat-HF) NCT01876433”), the expected initial dose is 25 mg/12 hours, being titrated to a maximum of 150 mg/12 hours. The dose of 50 mg/12 hours intends to be an average dose that can be easily extrapolated to patients with whom an efficacy study could be conducted knowing that the side effect profile is favorable.
Another cohort of animals with post-capillary chronic PH were randomized into chronic therapy for 14 days with Mirabegron (Myrbetrig® 50 mg/12 hours) or placebo. Right heart catheterization was performed pre- and post-treatment.

[6] = 5 μg/Kg endovenous single dose, 20 minutes after administration

C[C@H](Cc1ccc(OCC(=O)O)cc1)NC[C@H](O)c1cccc(Cl)c1 [BRL 37344, [4-[(2R)-2-[[(2R)-2-(3-clorophenyl)-2-hydroxyethyl]amino]propyl]phenoxy]acetic acid]
variation of mean systemic blood pressure ([1]; placebo 1.0±7.4, p=0.31, not significant): −4.6±8.0 | change of CO (post- minus pre-treatment) ([1]; placebo −0.20±0.31, p=0.008): 0.62±0.53 | change of PVR (post- minus pre-treatment) ([1]; placebo −0.4±1.3, p=0.008): −6.5±2.4 | variation of HR ([1]; placebo −3.0±7.1, p=0.84, not significant): −4.4±14.1 | change of PAPm (post- minus pre-treatment) ([1]; placebo −3.8±4.2, p=0.008): −13.0±4.5 | increase of oxygen saturation [2, 6]: 3.2% | increase of the cardiac output [2, 6]: 18% | reduction of pulmonary vascular resistances [2, 6]: 36% | reduction of systolic pulmonary pressure [2, 6]: 23% | reduction of the mean PAP [2, 6]: 30% | cardiac output after administration ([2]; 5 μg/Kg endovenous, 20 minutes, from 3.29±0.9 before, p=0.07): 3.90 ± 1.5 L/min | pulmonary vascular resistances after administration ([2]; 5 μg/Kg endovenous, 20 minutes, from 10.0±4.3 before, p=0.002): 6.4±3.2 Wood units | mean PAP after administration ([2]; 5 μg/Kg endovenous, 20 minutes, from 37.6±9.8 before, p<0.001): 28.8±9.8 mmHg | systolic pulmonary pressure after administration ([2]; 5 μg/Kg endovenous, 20 minutes, from 50.6±15.5 before, p<0.001): 38.9±9.9 mmHg | heart rate after administration ([2]; 5 μg/Kg endovenous, 20 minutes, from 83.8±21.1 before, p=0.20, no significant change): 87.8±16.8 bpm | systemic blood pressure after administration ([2]; 5 μg/Kg endovenous, 20 minutes, from 85.7±13.9 before, p=0.11, no significant change): 79.9±6.9 mmHg | oxygen saturation after administration ([2]; 5 μg/Kg endovenous, 20 minutes, from 90.88±2.64 before, p=0.001): 93.75±3.01% | changes in heart rate [3, 6]: without significant changes | changes in systemic blood pressure [3, 6]: without significant changes | decrease of the mean PAP [3, 6]: 32% | increase of oxygen saturation [3, 6]: 2% | reduction of systolic PAP [3, 6]: 25% | mean PAP after administration ([3]; 5 μg/Kg endovenous, 20 minutes, from 29.5±2.1 before): 20.0±5.7 mmHg | systolic PAP after administration ([3]; 5 μg/Kg endovenous, 20 minutes, from 37.5±6.4 before): 28.0±8.5 mmHg | change of pulmonary vascular resistances (PVRs) after 14 days ([4]; osmotic pump, jugular vein, placebo +1.3±1.2, p=0.042): −1.2±1.6 WU | change in heart rate after 14 days ([4]; placebo 3.0±28.2, p=0.49, not significant): −8.2±15.1 bpm | change in systemic mean blood pressure after 14 days ([4]; placebo 4.3±7.0, p=0.25, not significant): 2.3±6.9 mmHg

Nc1nc(CC(=O)Nc2ccc(CCNC[C@H](O)c3ccccc3)cc2)cs1 [Mirabegron]
change of PVRs after 14 days [5]: a reduction of PVRs was observed

Reference: patent US10532038B2, “Beta-3 adrenoceptor agonists for the treatment of pulmonary hypertension” (FUNDACIÓN CENTRO NACIONAL DE INVESTIGACIONES …, priority 2012, dated 2020)
